Laboratory results published in US12036212B2, “Enhancement of tumor response to chemotherapy by activation of the asmase/ceramide pathway through timed administration of a short-acting anti-angiogenic agent” (Memorial Sloan-Kettering Cancer Center, priority 2014, dated 2024).

What was measured:
ceramide = assay: Ceramide generation (diacylglycerol kinase assay) in BAEC; format: cell-based, bovine; details: paclitaxel 100 nM; for Ceramide generation: etoposide 50 μM, cisplatin 0.1-50 μM
Description: BAEC were established from the intima of bovine aorta as described^1. Stock cultures were grown in 100-mm dishes in Dulbecco's modified Eagle's medium (DMEM) supplemented with glucose (1 g/liter), 5% heat-inactivated calf serum (CS), penicillin (50 units/ml), and streptomycin (50 μg/ml). Purified human recombinant bFGF (1 ng/ml; R&D Systems, Inc., Minneapolis, MN) was added every other day during the exponential growth phase. […] These plateau phase cells were either used for experiments, or further sub-cultured (up to a maximum of 10 times) at a split ratio of 1:8. For sub-culturing, monolayers were dissociated with STV (0.05% trypsin and 0.02% EDTA in PBS) for 2-3 min at 22° C., washed twice in 5% CS-DMEM, and resuspended in DMEM with supplements as above. These mild conditions of trypsinization were sufficient to detach cells but not injure, stimulate, or affect cell function in a detectable way. BAEC were maintained at 37° C. in 10% CO2 humidified incubators.
After treatment, cells were placed on ice, washed with cold PBS, and lipids were extracted by addition of scraped cells in methanol to an equal volume of chloroform and 0.6 volume of buffered saline/EDTA solution (135 mM NaCl, 4.5 mM KCl, 1.5 mM CaCl2), 0.5 mM MgCl2, 5.6 mM glucose, 10 mM HEPES pH 7.2, 10 mM EDTA). Lipids in the organic phase extract were dried under N2 and subjected to mild alkaline hydrolysis (0.1 N methanolic KOH for 1 hour at 37° C.) to remove glycerophospholipids. Samples were re-extracted, and the organic phase was dried under N2. Ceramide contained in each sample was resuspended in a 100 μl reaction mixture containing 150 μg of cardiolipin, 280 μM diethylenetriaminepentaacetic acid, 51 mM octyl-β-glucopyranoside (Calbiochem), 50 mM NaCl, 51 mM imidazole, 1 mM EDTA, 12.5 mM MgCl2, 2 mM dithiothreitol, 0.7% glycerol, 70 μM β-mercaptoethanol, 1 mM ATP, 10 μCi of [γ-^32P]ATP, 35 μg/ml Escherichia coli diacylglycerol kinase (Calbiochem) at pH 6.5. After 30 minutes at room temperature, the reaction was stopped by extraction of lipids with 1 ml of chloroform:methanol:1 N HCl (100:100:1), 170 μl of buffered saline solution (BSS) (135 mM NaCl, 1.5 mM CaCl2, 0.5 mM MgCl2, 5.6 mM glucose, and 10 mM HEPES (pH 72), and 30 μl of 100 mM EDTA. The lower organic phase was dried under N2. Ceramide-1 phosphate was resolved by thin-layer chromatography on silica gel 60 plates (Whatman) using a solvent system of chloroform:methanol:acetic acid (65:15:5, v/v/v) and detected by autoradiography, and incorporated ^32P was quantified by liquid scintillation counting. The level of ceramide was determined by comparison with a standard curve generated concomitantly of known amounts of ceramide.
To test the effect of chemotherapy on ASMase signaling and ceramide production, BAEC were treated with paclitaxel (100 nM) and ASMase activity was determined by radioenzymatic assay (Rotolo et al, infra) using [^14C-methylcholine] sphingomyelin (Amersham) as substrate (FIG. 1A). […] Ceramide generation was monitored using the diacylglycerol kinase assay (Stancevic et al. PLoS ONE 8, e69025, 2013). […]
To determine the generality of the results observed, experiments were carried out using an additional endothelial cell line, human coronary artery endothelial cells (HCAEC); experiments were also performed using a different chemotherapeutic agent. […] Next, HCAEC were treated with paclitaxel (100 nM) (data not shown) and etoposide (50 μM) (FIG. 1F), and ceramide generation was evaluated. […]

HCT116 tumors = assay: Tumor response in vivo, HCT116 tumors; parameters: species or system mice
Description: Human HCT-116 colon cancer cells and MCA/129 murine sarcoma cells were maintained in DMEM with 10% fetal bovine serum, with 100 u/ml penicillin and 100 μg/ml streptomycin. Cells were grown as monolayers in 75 cm^2 culture flasks at 37° C. in 10% CO2 humidified incubators. Cells were trypsinized, washed in PBS and diluted in Matrigel/PBS solution (40:60 v/v) for HCT-116 xenografts or in PBS for MCA/129 syngeneic tumor grafts. Cells (3×10^6 for HCT-116 or 1×10^6 for MCA129) were injected subcutaneously into the flanks of mice (Garcia-Barros et al. Science 300, 1155-1159, 2003).
SCID^asmase+/+ and SCID^asmase−/− mice harboring HCT-116 tumors (50-100 mm^3) were treated with three i.p. injections of 35-50 mg/kg etoposide (Novaplus®), or 15-25 mg/kg paclitaxel (Hospira), or 1-6 mg/kg cisplatin (APP Pharmaceuticals, LLC) in a bi-weekly schedule with or without i.v. DC101 (1600 μg/25 gm mouse), or control IgG. For sarcoma studies, Sv129/Bl6 mice harboring MCA/129 tumors (100-150 mm^3) were treated with three i.p. injections of 240 mg/kg gemcitabine on a bi-weekly schedule with or without i.v. DC-101. Tumor volume, based on caliper measurements (length and width in millimeters), was calculated daily using the following formula: 0.5×length×width^2.
Tumor response to chemotherapy in the colorectal HCT116 xenograft model was evaluated. SCID^asmase+/+ or SCID^asmase−/− mice harboring HCT116 tumors (50-70 mm^3) were treated with paclitaxel (15/20/25 mg/kg i.p.) three times biweekly. […] To test that the ASMase requirement is mediated by the generation of ceramide, SCID^asmase+/+ mice harboring tumors as in FIG. 5A were treated with etoposide (35/35/50 mg/kg i.p.) biweekly in the presence of anti-ceramide or isotype control antibody.
To further test the ability of cisplatin to affect endothelial cell apoptosis and tumor response in vivo, effects of cisplatin on tumor growth were evaluated.
Thus, to further explore the notion of endothelial ASMase signaling requirement in response to chemotherapy, DC101 was used in combination with paclitaxel treatment.

Row | Compound | Ceramide generation persisted for (ceramide) [min] | Ceramide generation (ceramide) | Tumor response, agent alone (HCT116 tumors; SCID asmase+/+, 3×15 mg/kg paclitaxel or 1600 μg DC101 alone) | Complete tumor response after (HCT116 tumors; SCID asmase+/+, paclitaxel 15/20/25 mg/kg i.p. three times biweekly) [days] | Tumor response (HCT116 tumors; SCID asmase−/−, paclitaxel 15/20/25 mg/kg i.p. three times biweekly) | Tumor growth delay (HCT116 tumors; cisplatin 3×6 mg/kg)
1 | CC(=O)O[C@H]1C(=O)[C@@]2(C)[C@H]([C@H](OC(=O)c3ccccc3)[C@]3(O)C[C@H](OC(=O)[C@H](O)[C@@H](NC(=O)c4ccccc4)c4ccccc4)C(C)=C1C3(C)C)[C@]1(OC(C)=O)CO[C@@H]1C[C@@H]2O [paclitaxel] | 30 | peaked within minutes | slightly affected | 10 ± 1 | no significant tumor response | –
2 | N.N.[Cl][Pt][Cl] [cisplatin] | – | failed to activate ASMase and result in generation of ceramide | – | – | – | did not induce significant HCT116 tumor growth delay
